pIC50: −log10 of the molar value. Each block holds one compound with its values, some of them ahead of it. Active and inactive are the calls of the source. The calls are words filed in the database; no cut-off is given here.
How the values were obtained:
[1] = Hemolytic activity against human erythrocytes at 50 uM incubated for 1 hr at 570 nm by spectrophotometry; assay type: ADME, tissue-based, Erythrocyte; settings: read-out: Activity
[2] = Hemolytic activity against human erythrocytes at 200 uM incubated for 1 hr at 570 nm by spectrophotometry; assay type: ADME, tissue-based, Erythrocyte; settings: read-out: Activity
[3] = test system: Enterococcus faecalis; experiment: Bacteriostatic activity against planktonic cells of Enterococcus faecalis OG1RF measured by microdilution broth assay; assay type: functional, organism-based
[4] = test system: Enterococcus faecalis; experiment: Antibiofilm activity against Enterococcus faecalis FB-1 assessed as inhibition of biofilm maturation measured after 24 hr; assay type: functional, organism-based
[5] = test system: Enterococcus faecalis; experiment: Inhibition of biofilm formation of Enterococcus faecalis FB-1 assessed as inhibitory rate of formation at 100 uM for 24 hrs measured at 570 nm by crystal violet staining based spectrophotometry; assay type: functional
[6] = test system: Enterococcus faecalis; experiment: Bactericidal activity against Enterococcus faecalis OG1RF assessed as reduction in bacterial colonies incubated for 16 to 20 hrs by microdilution broth analysis; assay type: functional; settings: time 16-20 hrs, read-out: MBC99.9
[7] = test system: Enterococcus faecalis; experiment: Antibiofilm activity against Enterococcus faecalis assessed as reduction in amount of viable biofilm-embedded bacterial cells at 50 uM measured by YTO 9/PI staining followed by confocal laser scanning microscopy; assay type: functional
[8] = Cytotoxicity against african green monkey Vero cells assessed as inhibition of cell growth by MTT assay; assay type: cell-based; settings: chlorocebus sabaeus
[9] = test system: Enterococcus faecalis; experiment: Antimicrobial activity against Enterococcus faecalis OG1RF assessed as reduction in visible bacterial growth incubated for 16 to 20 hrs by microdilution broth assay; assay type: functional; settings: time 16-20 hrs
[10] = Inhibition of Enterococcus faecalis OG1RF YycG autophosphorylation by Kinase-Glo luminescent kinase assay
[11] = test system: Enterococcus faecalis; experiment: Antibiofilm activity against Enterococcus faecalis FB-1 assessed as eradication of mature biofilm measured after 48 hrs by semiquantitative microtiter assay; assay type: functional
[12] = test system: Staphylococcus epidermidis; experiment: Antibiofilm activity against Staphylococcus epidermidis assessed as inhibition of biofilm formation at sub-MIC concentration; assay type: functional, organism-based
[13] = test system: Streptococcus agalactiae; experiment: Antibiofilm activity against Streptococcus agalactiae assessed as inhibition of biofilm formation at sub-MIC concentration; assay type: functional, organism-based
[14] = test system: Enterococcus faecalis; experiment: Antibiofilm activity against Enterococcus faecalis FB-1 assessed as eradication of mature biofilm measured after 72 hrs by semiquantitative microtiter assay; assay type: functional
[15] = test system: Enterococcus faecalis; experiment: Effect on initial adhesion capacity of Enterococcus faecalis assessed as attached cells at 25 uM for 6 hrs by crystal violet staining based microscopic assay (reference value: 0.412); assay type: functional
[16] = test system: Staphylococcus aureus; experiment: Antibacterial activity against Staphylococcus aureus ATCC 29213 assessed as reduction in visible bacterial growth incubated for 16 to 20 hrs by microdilution broth assay; assay type: functional; settings: time 16-20 hrs
[17] = test system: Streptococcus agalactiae; experiment: Antibacterial activity against Streptococcus agalactiae NSGC64 assessed as reduction in visible bacterial growth incubated for 16 to 20 hrs by microdilution broth assay; assay type: functional; settings: time 16-20 hrs
[18] = test system: Enterococcus faecalis; experiment: Antibacterial activity against Enterococcus faecalis OG1RF assessed as reduction in visible bacterial growth incubated for 16 to 20 hrs by microdilution broth assay; assay type: functional; settings: time 16-20 hrs
[19] = test system: Staphylococcus epidermidis; experiment: Antibacterial activity against Staphylococcus epidermidis ATCC 35984 assessed as reduction in visible bacterial growth incubated for 16 to 20 hrs by microdilution broth assay; assay type: functional; settings: time 16-20 hrs
[20] = test system: Enterococcus faecalis; experiment: Binding affinity to Enterococcus faecalis FB-1 YycG assessed as slow association and slow dissociation measured by Octet RED96 response assay
[21] = test system: Enterococcus faecalis; experiment: Antibiofilm activity against Enterococcus faecalis FB-1 assessed as inhibition of biofilm infection at 25 uM by fluid shear system; assay type: functional, organism-based
[22] = test system: Escherichia coli; experiment: Antibacterial activity against Escherichia coli […] assessed as reduction in visible bacterial growth incubated for 16 to 20 hrs by microdilution broth assay; assay type: functional; settings: time 16-20 hrs
[23] = test system: Enterococcus faecium; experiment: Antibiofilm activity against Enterococcus faecium assessed as inhibition of biofilm formation at sub-MIC concentration; assay type: functional, organism-based
[24] = test system: Enterococcus faecalis; experiment: Antibacterial activity against Enterococcus faecalis ATCC 29212 assessed as reduction in visible bacterial growth incubated for 16 to 20 hrs by microdilution broth assay; assay type: functional; settings: time 16-20 hrs
[25] = test system: Enterococcus faecalis; experiment: Antibiofilm activity against Enterococcus faecalis assessed as reduction in amount of viable biofilm-embedded bacterial cells at 50 uM in presence of daptomycin measured by YTO 9/PI staining followed by confocal laser scanning microscopy; assay type: functional
[26] = test system: Enterococcus faecalis; experiment: Antibacterial activity against Enterococcus faecalis FB-1 assessed as reduction in visible bacterial growth incubated for 16 to 20 hrs by microdilution broth assay; assay type: functional; settings: time 16-20 hrs
[27] = test system: Staphylococcus aureus; experiment: Antibiofilm activity against Staphylococcus aureus assessed as inhibition of biofilm formation at sub-MIC concentration; assay type: functional, organism-based
[28] = test system: Enterococcus faecalis; experiment: Antibiofilm activity against Enterococcus faecalis FB-1 assessed as inhibition of biofilm maturation at 1.56 uM measured after 24 hr; assay type: functional, organism-based
[29] = test system: Enterococcus faecium; experiment: Antibacterial activity against Enterococcus faecium EF16M64 assessed as reduction in visible bacterial growth incubated for 16 to 20 hrs by microdilution broth assay; assay type: functional; settings: time 16-20 hrs
[30] = test system: Staphylococcus epidermidis; experiment: Antibacterial activity against Staphylococcus epidermidis ATCC 12228 assessed as reduction in visible bacterial growth incubated for 16 to 20 hrs by microdilution broth assay; assay type: functional; settings: time 16-20 hrs
[31] = test system: Staphylococcus aureus; experiment: Antibacterial activity against Staphylococcus aureus ATCC 35556 assessed as reduction in visible bacterial growth incubated for 16 to 20 hrs by microdilution broth assay; assay type: functional; settings: time 16-20 hrs
[32] = test system: Enterococcus faecalis; experiment: Antibiofilm activity against Enterococcus faecalis assessed as reduction in amount of viable biofilm-embedded bacterial cells at 50 uM in presence of ampicillin measured by YTO 9/PI staining followed by confocal laser scanning microscopy; assay type: functional
[33] = test system: Enterococcus faecalis; experiment: Antibiofilm activity against Enterococcus faecalis assessed as inhibition of biofilm at 1/2 times of MIC incubated for 24 hrs; assay type: functional; parameters: scale not given: the % may be the effect or the level left
[34] = test system: Enterococcus faecalis; experiment: Antibiofilm activity against Enterococcus faecalis FB-1 assessed as eradication of mature biofilm by semiquantitative microtiter assay; assay type: functional, organism-based

SMILES: COc1cc(C2C(C(=O)c3cc4ccccc4o3)=C(O)C(=O)N2c2nnc(SCc3ccccc3Cl)s2)ccc1O (stereo not given)
Activity [11]: 51%
hemolysis at 1 h, 50 µM [1]: 2.77%
hemolysis at 1 h, 200 µM [2]: 6.14%
Activity [3]: inactive
Activity [12]: Active
Activity [13]: Active
Activity [4]: Dose-Dependent Effect
Activity [14]: 66%
OD [15]: 0.143
inhibition at 100 µM [5]: 92.7%
MIC [16]: > 200 µM
MIC [17]: > 200 µM
MIC [18]: > 200 µM
MIC [19]: > 200 µM
Activity [20]: Active
Activity [21]: Active
MBC [6]: > 200 µM
MIC [22]: > 200 µM
Activity [23]: Active
MIC [24]: > 200 µM
Activity [25]: 47.16%
MIC [26]: > 200 µM
Activity [27]: Active
Activity [28]: Active
MIC [29]: > 200 µM
MIC [30]: > 200 µM
MIC [31]: > 200 µM
Activity [32]: 72.71%
Activity [33]: 74.8%
Activity [7]: 52.85%
CC50 [8]: > 200 µM
MIC [9]: > 200 µM
pIC50 [10]: 5.21

SMILES: O=C(C1=C(O)C(=O)N(c2nnc(SCc3ccccc3)s2)C1c1ccccc1F)c1cc2ccccc2o1 (stereo not given)
hemolysis at 1 h, 50 µM [1]: 4.44%
hemolysis at 1 h, 200 µM [2]: 8.31%
Activity [3]: inactive
Activity [4]: Dose-Dependent Effect
inhibition at 100 µM [5]: 73.8%
MBC [6]: > 200 µM
CC50 [8]: > 200 µM
MIC [9]: > 200 µM
Activity [34]: inactive
pIC50 [10]: < 3.70

Now from value to compound, other results behind:

MIC [9]: > 200 µM
pIC50 [10]: 5.08
SMILES: O=C(C1=C(O)C(=O)N(c2nnc(SCc3ccc(Cl)cc3)s2)C1c1cccc(O)c1)c1cc2ccccc2o1 (stereo not given)
hemolysis at 1 h, 50 µM [1]: 6.26%
hemolysis at 1 h, 200 µM [2]: 7.81%
Activity [3]: inactive
Activity [4]: Dose-Dependent Effect
inhibition at 100 µM [5]: 72%
MBC [6]: > 200 µM
Activity [7]: 27.79%
CC50 [8]: > 200 µM

MIC [9]: > 200 µM
pIC50 [10]: < 3.70
SMILES: O=C(C1=C(O)C(=O)N(c2nnc(SCc3ccc(F)cc3)s2)C1c1cccc(O)c1)c1cc2ccccc2o1 (stereo not given)
hemolysis at 1 h, 50 µM [1]: 1.94%
hemolysis at 1 h, 200 µM [2]: 3.83%
Activity [3]: inactive
Activity [4]: Dose-Dependent Effect
inhibition at 100 µM [5]: 75.5%
MBC [6]: > 200 µM
Activity [28]: Active
CC50 [8]: > 200 µM
Activity [34]: inactive

MIC [9]: > 200 µM
pIC50 [10]: 5.82
SMILES: Cc1ccc(CSc2nnc(N3C(=O)C(O)=C(C(=O)c4cc5ccccc5o4)C3c3cccc(O)c3)s2)cc1 (stereo not given)
hemolysis at 1 h, 50 µM [1]: 4.7%
hemolysis at 1 h, 200 µM [2]: 6.32%
Activity [3]: inactive
Activity [4]: Dose-Dependent Effect
inhibition at 100 µM [5]: 77.7%
MBC [6]: > 200 µM
Activity [28]: Active
Activity [7]: 46.93%
CC50 [8]: > 200 µM

Source: ChEMBL document CHEMBL5030556, “Selection and Identification of Novel Antibacterial Agents against Planktonic Growth and Biofilm Formation of Enterococcus faecalis” (J Med Chem, 2021)
